Assay results as given in patent US9884868B2, “TGF-beta inhibitors” (Rigel Pharmaceuticals, Inc., priority 2015, dated 2018).
Where a name gives a salt, the structure may show the parent alone.

Columns and labels:
HIS-TGF-βR2 WT = HIS-TGF-βR2 WT (Homo sapiens (Human), UniProt P37173); experiment: HTRF probe displacement assay with HIS-TGF-βR2 WT; conditions: read-out: TGFBr2 IC50; HTRF probe displacement, 1 nM HIS-TGF-βR2 WT, 1 hour at room temperature
HIS-TGF-βR1 T204D = HIS-TGF-βR1 T204D (Homo sapiens (Human), UniProt P36897, T204D); experiment: HTRF probe displacement assay with HIS-TGF-βR1 T204D; conditions: read-out: TGFbr1 IC50; HTRF probe displacement, 1 nM HIS-TGF-βR1 T204D, 1 hour at room temperature
Sequence of HIS-TGF-βR1 T204D (P36897 34-503 T204D): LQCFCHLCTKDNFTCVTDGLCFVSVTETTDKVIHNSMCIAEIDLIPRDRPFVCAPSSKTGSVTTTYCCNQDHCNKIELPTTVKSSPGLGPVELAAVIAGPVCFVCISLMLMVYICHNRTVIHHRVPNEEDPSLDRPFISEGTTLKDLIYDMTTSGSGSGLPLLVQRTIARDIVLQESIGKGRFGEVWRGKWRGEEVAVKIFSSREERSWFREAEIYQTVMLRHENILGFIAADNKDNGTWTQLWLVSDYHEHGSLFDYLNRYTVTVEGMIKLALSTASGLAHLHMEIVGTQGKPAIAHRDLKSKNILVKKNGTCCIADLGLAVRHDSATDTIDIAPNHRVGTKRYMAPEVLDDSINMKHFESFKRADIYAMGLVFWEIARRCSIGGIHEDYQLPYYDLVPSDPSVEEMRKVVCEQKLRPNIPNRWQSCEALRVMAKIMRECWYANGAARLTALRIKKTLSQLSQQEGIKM

Sequence of HIS-TGF-βR2 WT (P37173 23-567): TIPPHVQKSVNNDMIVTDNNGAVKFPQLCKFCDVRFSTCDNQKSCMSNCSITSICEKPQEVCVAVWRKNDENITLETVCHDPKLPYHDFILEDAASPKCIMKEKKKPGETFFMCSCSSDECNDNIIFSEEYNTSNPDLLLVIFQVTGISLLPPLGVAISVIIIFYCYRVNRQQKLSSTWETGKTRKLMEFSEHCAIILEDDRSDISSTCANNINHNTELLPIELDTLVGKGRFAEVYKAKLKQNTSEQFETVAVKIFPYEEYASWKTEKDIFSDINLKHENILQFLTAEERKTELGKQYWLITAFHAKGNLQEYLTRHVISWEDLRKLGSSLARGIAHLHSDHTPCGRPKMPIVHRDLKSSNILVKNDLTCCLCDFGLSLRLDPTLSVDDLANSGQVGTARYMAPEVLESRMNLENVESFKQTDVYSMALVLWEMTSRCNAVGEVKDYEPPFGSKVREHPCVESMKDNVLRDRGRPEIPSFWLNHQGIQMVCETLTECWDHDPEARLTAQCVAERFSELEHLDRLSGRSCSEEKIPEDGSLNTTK

## N#Cc1cnc2ccc(-c3c(-c4ccc(F)cc4)ncn3[C@]34CC5CC(C[C@](O)(C5)C3)C4)nn12 (single isomer, unassigned) [269′]
HIS-TGF-βR2 WT
  IC50: > 15 µM
HIS-TGF-βR1 T204D
  IC50: 1200 nM

## N#Cc1cnc2ccc(-c3c(-c4ccc(F)cc4)ncn3C3CCC(F)(F)CC3)nn12 [8′, 6-(1-(4,4-difluorocyclohexyl)-4-(4-fluorophenyl)-1H-imidazol-5-yl)imidazo[1,2-b]pyridazine-3-carbonitrile]
HIS-TGF-βR2 WT
  IC50: > 15 µM
HIS-TGF-βR1 T204D
  IC50: 17.9 nM

## N#Cc1cnc2ccc(-c3c(-c4cccc(-c5ccccc5)c4)ncn3CC(F)F)nn12 [257′, 6-(4-([1,1′-biphenyl]-3-yl)-1-(2,2-difluoroethyl)-1H-imidazol-5-yl)imidazo[1,2-b]pyridazine-3-carbonitrile]
HIS-TGF-βR2 WT
  IC50: > 15 µM

## N#Cc1cnc2ccc(-c3c(-c4ccc(F)cc4C(F)(F)F)ncn3CC(F)F)nn12 [261′, 6-(1-(2,2-difluoroethyl)-4-(4-fluoro-2-(trifluoromethyl)phenyl)-1H-imidazol-5-yl)imidazo[1,2-b]pyridazine-3-carbonitrile]
HIS-TGF-βR2 WT
  IC50: > 15 µM

## CC(=O)N1CCn2c(nc(-c3ccc(F)cc3)c2-c2ccc3ncc(C(N)=O)n3c2)C1 [292′, 6-(7-acetyl-2-(4-fluorophenyl)-5,6,7,8-tetrahydroimidazo[1,2-a]pyrazin-3-yl)imidazo[1,2-a]pyridine-3-carboxamide]
HIS-TGF-βR2 WT
  IC50: > 15 µM

## Fc1ccc(-c2ncn(CC(F)F)c2-c2ccc3ncc(-c4cnco4)n3n2)cc1 [Example 216′, 5-(6-(1-(2,2-difluoroethyl)-4-(4-fluorophenyl)-1H-imidazol-5-yl)imidazo[1,2-b]pyridazin-3-yl)oxazole]
HIS-TGF-βR1 T204D
  IC50: 0.9 nM

## OCCc1cnc2ccc(-c3c(-c4ccc(F)cc4)ncn3CC(F)F)nn12 [Example 217′, 2-(6-(1-(2,2-difluoroethyl)-4-(4-fluorophenyl)-1H-imidazol-5-yl)imidazo[1,2-b]pyridazin-3-yl)ethanol]
HIS-TGF-βR1 T204D
  IC50: 3.2 nM

## Fc1ccc(-c2ncn(CC(F)F)c2-c2ccc3nccn3c2)cc1 [Example 218′, 6-(1-(2,2-difluoroethyl)-4-(4-fluorophenyl)-1H-imidazol-5-yl)imidazo[1,2-a]pyridine]
HIS-TGF-βR1 T204D
  IC50: 62.7 nM

## N#Cc1cnc2ccc(-c3c(-c4ccc(F)cc4)ncn3CC(F)F)cn12 [Example 224′, 6-(1-(2,2-difluoroethyl)-4-(4-fluorophenyl)-1H-imidazol-5-yl)imidazo[1,2-a]pyridine-3-carbonitrile]
HIS-TGF-βR1 T204D
  IC50: 66.7 nM

## N#Cc1cccc(-c2ncn(CC(F)F)c2-c2ccc3ncc(C#N)n3n2)c1 [Example 236]
HIS-TGF-βR1 T204D
  IC50: 2.1 nM

## N#Cc1cnc2ccc(-c3c(-c4ccc(F)cc4)ncn3C3(C#N)CC3)nn12 [Example 267′, 6-(1-(1-cyanocyclopropyl)-4-(4-fluorophenyl)-1H-imidazol-5-yl)imidazo[1,2-b]pyridazine-3-carbonitrile, TFA]
HIS-TGF-βR1 T204D
  IC50: 0.3 nM

## CC(C)(C)Cn1cnc(-c2ccc(F)cc2)c1-c1ccc2ncc(C#N)n2n1 [Example 270′, 6-(4-(4-fluorophenyl)-1-neopentyl-1H-imidazol-5-yl)imidazo[1,2-b]pyridazine-3-carbonitrile]
HIS-TGF-βR1 T204D
  IC50: 99.2 nM

## Cc1nc(-c2ccc(F)cc2)c(-c2ccc3nccn3c2)n1CC(F)F [Example 271′, 6-(1-(2,2-difluoroethyl)-4-(4-fluorophenyl)-2-methyl-1H-imidazol-5-yl)imidazo[1,2-a]pyridine]
HIS-TGF-βR1 T204D
  IC50: 172 nM

## Cc1nc(-c2ccc(F)cc2)c(-c2ccc3ncc(C(N)=O)n3c2)n1CC(F)F [Example 272′, 6-(1-(2,2-difluoroethyl)-4-(4-fluorophenyl)-2-methyl-1H-imidazol-5-yl)imidazo[1,2-a]pyridine-3-carboxamide]
HIS-TGF-βR1 T204D
  IC50: 10.4 nM

## Cc1nc(-c2ccc(F)cc2)c(-c2ccc3[nH]ncc3c2)n1CC(F)F [Example 273′, 5-(1-(2,2-difluoroethyl)-4-(4-fluorophenyl)-2-methyl-1H-imidazol-5-yl)-1H-indazole]
HIS-TGF-βR1 T204D
  IC50: 29.6 nM

## CC(O)c1cnc2ccc(-c3c(-c4ccc(F)cc4)ncn3CC(F)F)cn12 (stereo not drawn) [Example 274′, 1-(6-(1-(2,2-difluoroethyl)-4-(4-fluorophenyl)-1H-imidazol-5-yl)imidazo[1,2-a]pyridin-3-yl)ethanol]
HIS-TGF-βR1 T204D
  IC50: 137 nM

## Fc1ccc(-c2ncn(CC(F)F)c2-c2ccc3ncc(C(F)F)n3c2)cc1 [Example 277′, 6-(1-(2,2-difluoroethyl)-4-(4-fluorophenyl)-1H-imidazol-5-yl)-3-(difluoromethyl)imidazo [1,2-a]pyridine]
HIS-TGF-βR1 T204D
  IC50: 20.9 nM

## CC(C)(O)c1cnc2ccc(-c3c(-c4ccc(F)cc4)ncn3CC(F)F)cn12 [Example 278′]
HIS-TGF-βR1 T204D
  IC50: 184 nM

## Fc1ccc(-c2ncn(CC(F)F)c2-c2ccc3nncn3c2)cc1 [Example 281′, 6-(1-(2,2-difluoroethyl)-4-(4-fluorophenyl)-1H-imidazol-5-yl)-[1,2,4]triazolo[4,3-a]pyridine]
HIS-TGF-βR1 T204D
  IC50: 522 nM

## Fc1ccc(-c2ncn(CC(F)F)c2-c2ccn3ncnc3c2)cc1 [Example 282′, 7-(1-(2,2-difluoroethyl)-4-(4-fluorophenyl)-1H-imidazol-5-yl)-[1,2,4]triazolo[1,5-a]pyridine]
HIS-TGF-βR1 T204D
  IC50: 12.9 nM

## NC(=O)c1cnc2ccc(-c3c(-c4ccc(F)cc4)nc4n3CCC4)cn12 [Example 283′, 6-(2-(4-fluorophenyl)-6,7-dihydro-5H-pyrrolo[1,2-a]imidazol-3-yl)imidazo[1,2-a]pyridine-3-carboxamide]
HIS-TGF-βR1 T204D
  IC50: 0.9 nM

## Fc1ccc(-c2ncn(CC(F)F)c2-c2ccc3ncc(C4CC4)n3c2)cc1 [Example 285′, 3-cyclopropyl-6-(1-(2,2-difluoroethyl)-4-(4-fluorophenyl)-1H-imidazol-5-yl)imidazo[1,2-a]pyridine]
HIS-TGF-βR1 T204D
  IC50: 38.8 nM

## Fc1ccc(-c2ncn(CC(F)F)c2-c2ccc3ncc(F)n3c2)cc1 [Example 288′, 6-(1-(2,2-difluoroethyl)-4-(4-fluorophenyl)-1H-imidazol-5-yl)-3-fluoroimidazo[1,2-a]pyridine]
HIS-TGF-βR1 T204D
  IC50: 56.7 nM

## NC(=O)c1cnc2ccc(-c3c(-c4ccc(F)cc4)nc4n3CCNC4)cn12 [Example 290′, 6-(2-(4-fluorophenyl)-5,6,7,8-tetrahydroimidazo[1,2-60]pyrazin-3-yl)imidazo[1,2-a]pyridine-3-carboxamide]
HIS-TGF-βR1 T204D
  IC50: 21.6 nM

## CN1CCn2c(nc(-c3ccc(F)cc3)c2-c2ccc3ncc(C(N)=O)n3c2)C1 [Example 293′, 6-(2-(4-fluorophenyl)-7-methyl-5,6,7,8-tetrahydroimidazo[1,2-a]pyrazin-3-yl)imidazo[1,2-a]pyridine-3-carboxamide]
HIS-TGF-βR1 T204D
  IC50: 43.3 nM

## CC(=O)Nc1nc(-c2ccc(F)cc2)c(-c2ccc3nccn3c2)[nH]1 [Example 295′, N-(4-(4-fluorophenyl)-5-(imidazo[1,2-a]pyridin-6-yl)-1H-imidazol-2-yl)acetamide]
HIS-TGF-βR1 T204D
  IC50: 55 nM

## Nc1nc(-c2ccc(F)cc2)c(-c2ccc3nccn3c2)n1CC(F)F [Example 296′, 1-(2,2-difluoroethyl)-4-(4-fluorophenyl)-5-(imidazo[1,2-a]pyridin-6-yl)-1H-imidazol-2-amine, 2 HCl]
HIS-TGF-βR1 T204D
  IC50: 109 nM

## N#Cc1cnc2ccc(-c3c(-c4ccc(F)cc4)nc(N)n3CC(F)F)cn12 [Example 298′, 6-(2-amino-1-(2,2-difluoroethyl)-4-(4-fluorophenyl)-1H-imidazol-5-yl)imidazo[1,2-a]pyridine-3-carbonitrile]
HIS-TGF-βR1 T204D
  IC50: 44.8 nM
